Assay results published in ChEMBL document CHEMBL1828555, “Primary amino acid derivatives: substitution of the 4'-N'-benzylamide site in (R)-N'-benzyl 2-amino-3-methylbutanamide, (R)-N'-benzyl 2-amino-3,3-dimethylbutanamide, and (R)-N'-benzyl 2-amino-3-methoxypropionamide provides potent anticonvulsants with pain-attenuating properties” (J Med Chem, 2011).
Activity calls are given as the source filed them. No cut-off for these calls is given here.

Assays:
Mus musculus [1] = test: Anticonvulsant activity in ip dosed NMRI mouse assessed as protection against maximal electroshock seizure after 30 mins; type: functional; details: 0.5 h
Mus musculus [2] = test: Anticonvulsant activity in ip dosed 6 Hz psychomotor seizure model of NMRI mouse assessed as minimal active dose after 30 mins; type: functional
Mus musculus [3] = test: Analgesic activity in ip dosed NMRI mouse assessed as reduction in formalin-induced neuropathic pain after 30 mins; type: functional; details: 0.5 h
Mus musculus [4] = test: Anticonvulsant activity in ip dosed albino CF1 mouse assessed as protection against subcutaneous pentylenetetrazol-induced seizure; type: functional, organism-based
Mus musculus [5] = test: Anticonvulsant activity in ip dosed 6 Hz psychomotor seizure model of NMRI mouse assessed as protection against seizure after 30 minutes; type: functional; details: 0.5 h
[6] = Neurotoxicity in ip dosed NMRI mouse assessed as median neurological impairing dose after 30 mins by rotarod test; type: toxicity, organism-based; details: in vivo
Mus musculus [7] = test: Protective index, ratio of TD50 for ip dosed NMRI mouse to ED50 for ip dosed NMRI mouse by maximal electroshock test; type: functional
Mus musculus [8] = test: Protective index, ratio of TD50 for ip dosed NMRI mouse to ED50 for ip dosed formalin-induced neuropathic pain model of NMRI mouse; type: functional
Mus musculus [9] = test: Analgesic activity in NMRI mouse assessed as reduction in formalin-induced neuropathic pain at 110 mg/kg, ip; type: functional; parameters: scale not given: the % may be the effect or the level left; details: route intraperitoneal
Mus musculus [10] = test: Anticonvulsant activity in ip dosed albino CF1 mouse assessed as protection against maximal electroshock-induced seizure after 30 mins; type: functional; details: 0.5 h
Mus musculus [11] = test: Anticonvulsant activity in ip dosed albino CF1 mouse assessed as protection against 6 Hz psychomotor seizure after 30 mins; type: functional; details: 0.5 h
[12] = Neurotoxicity in ip dosed albino CF1 mouse assessed as median neurological impairing dose after 30 mins; type: toxicity, organism-based; details: in vivo
Rattus norvegicus [13] = test: Anticonvulsant activity in po dosed albino Sprague-Dawley rat assessed as protection against maximal electroshock seizure; type: functional
[14] = Toxicity in po dosed albino Sprague-Dawley rat assessed as behavioural toxicity; type: organism-based; details: in vivo
Rattus norvegicus [15] = test: Protective index, ratio of TD50 for po dosed albino Sprague-Dawley rat to ED50 for po dosed albino Sprague-Dawley rat by maximal electroshock test; type: functional
Mus musculus [16] = test: Analgesic activity in NMRI mouse assessed as reduction in formalin-induced neuropathic pain at 37 mg/kg, ip; type: functional; parameters: scale not given: the % may be the effect or the level left; details: route intraperitoneal
Mus musculus [17] = test: Anticonvulsant activity in ip dosed albino CF1 mouse assessed as time of peak effect for protection against maximal electroshock-induced seizure; type: functional
Mus musculus [18] = test: Neurotoxicity in ip dosed albino CF1 mouse assessed as time of peak effect for median neurological impairing; type: toxicity, organism-based; details: in vivo
Rattus norvegicus [19] = test: Anticonvulsant activity in po dosed albino Sprague-Dawley rat assessed as time of peak effect for protection against maximal electroshock seizure; type: functional
Mus musculus [20] = test: Analgesic activity in NMRI mouse assessed as reduction in formalin-induced neuropathic pain at 12 mg/kg, ip; type: functional, organism-based; parameters: dose 12 mg/kg
Mus musculus [21] = test: Analgesic activity in ip dosed albino CF1 mouse assessed as reduction of formalin-induced neuropathic pain after 30 mins; type: functional; details: 0.5 h
Mus musculus [22] = test: Protective index, ratio of TD50 for ip dosed albino CF1 mouse to ED50 for ip dosed albino CF1 mouse by maximal electroshock test; type: functional
Mus musculus [23] = test: Anticonvulsant activity in ip dosed maximal electroshock seizure model of NMRI mouse assessed as minimal active dose after 30 mins; type: functional
Mus musculus [24] = test: Anticonvulsant activity in ip dosed albino CF1 mouse assessed as time of peak effect for protection against 6 Hz psychomotor seizure; type: functional
Mus musculus [25] = test: Analgesic activity in ip dosed albino CF1 mouse assessed as time of peak effect for reduction of formalin-induced neuropathic pain; type: functional

| SMILES | ED50 (Mus musculus [1]) | ED50 (Mus musculus [3]) | Activity (Mus musculus [4]) | ED50 (Mus musculus [5]) | TD50 at 0.5 h [6] | Ratio TD50/ED50 (Mus musculus [7]) | ED50 (Mus musculus [10]) | ED50 (Mus musculus [11]) | TD50 at 0.5 h [12] | ED50 (Rattus norvegicus [13]) | TD50 [14] | Ratio TD50/ED50 (Rattus norvegicus [15]) | Time (Mus musculus [17]) | Time (Mus musculus [18]) | Time (Rattus norvegicus [19]) | ED50 (Mus musculus [21]) | Ratio TD50/ED50 (Mus musculus [22]) | Time (Mus musculus [24]) | Time (Mus musculus [25]) | also measured |
| --- | --- | --- | --- | --- | --- | --- | --- | --- | --- | --- | --- | --- | --- | --- | --- | --- | --- | --- | --- | --- |
| COC[C@@H](N)C(=O)NCc1ccc(-c2ccccc2)cc1.Cl | 15 mg/kg | > 33 mg/kg | inactive | – | – | – | – | – | – | – | – | – | – | – | – | – | – | – | – | MAC (Mus musculus [2]): 59 mg/kg |
| COC[C@@H](N)C(=O)NCc1ccc(Br)cc1.Cl | 31 mg/kg | 70 mg/kg | inactive | > 180 mg/kg | 115 mg/kg | 3.7 | – | – | – | – | – | – | – | – | – | – | – | – | – | Ratio TD50/ED50 (Mus musculus [8]): 1.6 |
| CC(C)[C@@H](N)C(=O)NCc1ccc(OCc2cccc(F)c2)cc1 | 12 mg/kg | – | inactive | > 110 mg/kg | – | – | – | – | – | – | – | – | – | – | – | – | – | – | – | Activity (Mus musculus [9]): 80% |
| COC[C@@H](N)C(=O)NCc1ccc(COc2cccc(F)c2)cc1 | 8.9 mg/kg | – | inactive | 58 mg/kg | 46 mg/kg | 5.4 | 10 mg/kg | < 30 mg/kg | 30 mg/kg | 12 mg/kg | > 500 mg/kg | >42 | 0.5 h | 0.5 h | 0.5 h | – | – | – | – | Activity (Mus musculus [16]): 94%; Activity (Mus musculus [20]): inactive |
| CC(C)[C@@H](N)C(=O)NCc1ccccc1 | – | 20 mg/kg | – | 74 mg/kg | 47 mg/kg | 2.9 | 15 mg/kg | < 100 mg/kg | 70 mg/kg | 11 mg/kg | > 500 mg/kg | >45 | 0.25 h | 0.25 h | 0.25 h | 15 mg/kg | 4.8 | 0.25 h | 0.25 h | MAC (Mus musculus [23]): 16 mg/kg |
| CC(C)[C@@H](N)C(=O)NCc1ccc(OC(F)(F)F)cc1 | – | – | inactive | – | – | – | 16 mg/kg | 28 mg/kg | 84 mg/kg | 18 mg/kg | > 500 mg/kg | >27 | 0.25 h | 0.25 h | 1 h | 16 mg/kg | 5.3 | 0.5 h | 0.25 h | – |
